Source: paper PMC10054634, “Chemical Constituents of Thesium chinense Turcz and Their In Vitro Antioxidant, Anti-Inflammatory and Cytotoxic Activities” (Molecules, 2023)
Like-named read-outs stand apart in the source and are kept apart here.

How the values were obtained:
[1] = tested on: A549; experiment: Cytotoxic assay (CCK-8), A549; assay type: cell-based, human; details: A549, 48 h, mean ± SD (n = 3)
Method: (§1) Four human cancer cell lines, A549, NCI-H292, SiHa and MKN45, were purchased from the Cell Bank of the Chinese Academy of Sciences (Shanghai, China). […] Cisplatin (Abmole Bioscience, Shanghai, China) was used as positive control.
(§2) A total of 180 μL of cancer cells (5 × 10^3) were plated in each well of 96-well plates and cultured for 24 h, then the supernatant of the culture was discarded and 180 μL complete medium with different concentrations of test samples were added into triplicate wells of each cell line, respectively. Thereafter, A549, NCI-H292, SiHa and MKN45 were incubated for 48 h, respectively. The cell viability was evaluated by Cell Counting Kit-8 (CCK-8, Best Bio., Beijing, China), respectively. The experiments were performed in triplicate, and the data were expressed as the means ± SD of three independent experiments.

[2] = tested on: NCI-H292; experiment: Cytotoxic assay (CCK-8), NCI-H292; assay type: cell-based, human; details: NCI-H292, 48 h, mean ± SD (n = 3)
Method: as §1, §2

[3] = tested on: SiHa; experiment: Cytotoxic assay (CCK-8), SiHa; assay type: cell-based, human; details: 48 h, mean ± SD (n = 3)
Method: as §1, §2

[4] = tested on: MKN45; experiment: Cytotoxic assay (CCK-8), MKN45; assay type: cell-based, human; details: mean ± SD (n = 3)
Method: as §1, §2

[5] = tested on: NO production in LPS-activated RAW 264.7 cells; experiment: Inhibition of NO production in LPS-activated RAW 264.7 cells (Griess reaction); assay type: cell-based; details: Mus musculus, read-out: IC50 (NO inhibitory activity)
Method: The macrophage RAW 264.7 cells were obtained from the Cell Bank of the Chinese Academy of Sciences (Shanghai, China). A total of 180 μL of RAW 264.7 cells (1 × 10^4) were plated respectively in each well of 96-well plate and cultured for 24 h, then the supernatant of the culture was discarded and 180 μL complete medium with 1 μg/mL LPS and different concentrations of test samples were added into triplicate wells for 24 h. The inhibition effects on LPS-stimulated NO production was evaluated by the Griess reaction assay. The experiments were performed in triplicate, and the data were expressed as the means ± SD of three independent experiments.

[6] = Cytotoxicity in RAW 264.7 cells (CCK-8); details: mouse
Method: The cell viability was determined by the CCK-8 assay method. The cytotoxicity was calculated from the plotted results using untreated cells at 100%.

[7] = DPPH radical scavenging assay; details: compared with positive control ascorbic acid
Method: The 2, 2-diphenyl-1-picrylhydrazyl (Aldrich Chem. Co. Ltd, Shanghai, China) radical scavenging activity assay was performed according to the previously published method with some modification. Test samples were dissolved in MeOH to six different concentrations ranging from 3.125 to 100 μM. Then, 100 μL of 100 μM DPPH in MeOH were mixed with 100 μL of samples at different concentrations in the wells of 96-well plates. The reaction mixtures were incubated in the dark at 37 °C for 30 min and then measured at 517 nm. Ascorbic acid was used as the positive control. The scavenging activity (SC) was estimated as follows: % SC = [1 − (Asample − Ablank)/Acontrol] ×100. Asample was the equivalent mixture of test sample and DPPH solution. Ablank was the equivalent mixture of test sample and MeOH solution. Acontrol was the equivalent mixture of DPPH and MeOH solution. The SC50 values were used to evaluate the antioxidant activities of isolated compounds. The experiments were performed in triplicate, and the data were expressed as the means ± SD of three independent experiments.

[8] = Homo sapiens, MKN-45, MKN45, 48 h
[9] = RAW264.7, RAW 264.7, 1 μg/mL LPS, 24 h, mean ± SD (n = 3)

| IC50 [5, 9] [µM] | Molecule | IC50 ([1]; Homo sapiens) [µM] | IC50 ([2]; Homo sapiens) [µM] | IC50 ([3]; Homo sapiens) [µM] | IC50 [4, 8] [µM] | IC50 [6] [µM] | antioxidant activity on DPPH radical scavenging (in words) [7] | IC50 ([5]; RAW264.7, 24 h) [µM] | IC50 [1] [µM] | IC50 [2] [µM] | IC50 [3] [µM] | IC50 ([4]; MKN45, 48 h) [µM] |
| --- | --- | --- | --- | --- | --- | --- | --- | --- | --- | --- | --- | --- |
| > 200 | COC/C=C/c1cc(OC)c2c(c1)[C@H](CO)[C@H](c1ccc(O[C@@H]3O[C@H](CO)[C@@H](O)[C@H](O)[C@H]3O)c(OC)c1)O2 [Compound 13, (7S, 8R) 9′-methoxy-dehydrodiconiferyl alcohol 4-O-β-D-glucopyranoside] | > 200 | > 200 | > 200 | > 200 | > 200 |  |  |  |  |  |  |
| > 200 | COc1cc([C@@H](O)[C@@H](CO)Oc2c(OC)cc(/C=C/CO)cc2OC)cc(OC)c1O[C@@H]1O[C@H](CO)[C@@H](O)[C@H](O)[C@H]1O [Compound 14, picraquassioside C] | > 200 | > 200 | > 200 | > 200 | > 200 |  |  |  |  |  |  |
| > 200 | COc1cc([C@H](O)[C@@H](CO)Oc2ccc(/C=C/CO)cc2OC)ccc1O[C@@H]1O[C@H](CO)[C@@H](O)[C@H](O)[C@H]1O [Compound 15, citrusin A] | > 200 | > 200 | > 200 | > 200 | > 200 |  |  |  |  |  |  |
| > 200 | COc1cc([C@H](O)[C@@H](CO)Oc2c(OC)cc(/C=C/CO)cc2OC)ccc1O[C@@H]1O[C@H](CO)[C@@H](O)[C@H](O)[C@H]1O [Compound 16, citrusin B] | > 200 | > 200 | > 200 | > 200 | > 200 |  |  |  |  |  |  |
| > 200 | COc1cc(C(O)C(CO)Oc2c(OC)cc(C(O)C(O)CO)cc2OC)ccc1O (stereo not drawn) [Compound 17, (erythro, erythro)-1-[4-[2-hydroxy-2-(4-hydroxy-3-methoxy-phenyl)-1-(hydroxymethyl)ethoxy]-3,5-dimethoxyphenyl]-1,2,3-propanetriol] | > 200 | > 200 | > 200 | > 200 | > 200 | moderate activity |  |  |  |  |  |
| > 200 | O=C(O)/C=C/c1ccc(O)cc1 [Compound 22, p-coumaric acid] | > 200 | > 200 | > 200 | > 200 | > 200 |  |  |  |  |  |  |
|  | COc1cc(/C=C/CO)cc(OC)c1O[C@@H]1O[C@H](CO)[C@@H](O)[C@H](O)[C@H]1O [Compound 24, syringin] | > 200 | > 200 | > 200 | > 200 | > 200 |  | > 200 |  |  |  |  |
| > 200 | COc1cc(/C=C/CO)ccc1O[C@@H]1O[C@H](CO)[C@@H](O)[C@H](O)[C@H]1O [Compound 25, coniferin] | > 200 | > 200 | > 200 | > 200 | > 200 |  |  |  |  |  |  |
|  | COc1cc(/C=C/C=O)cc(OC)c1O[C@@H]1O[C@H](CO)[C@@H](O)[C@H](O)[C@H]1O [Compound 29, sinapaldehyde glucoside] | > 200 | > 200 | > 200 | > 200 | > 200 |  | > 200 |  |  |  |  |
| 11.1 ± 1.4 | O=c1c(O)c(-c2ccc(O)c(O)c2)oc2cc(O)cc(O)c12 [Quercetin, reference compound] |  |  |  |  | > 50 |  |  |  |  |  |  |
|  | N.N.[Cl][Pt][Cl] [cisplatin, reference compound] |  |  |  |  |  |  |  | 19.5 ± 6.7 | 52.8 ± 5.3 | 7 ± 0.7 | 7 ± 0.3 |
|  | scopoletin [Compound 28] |  |  |  |  |  |  |  | > 200 | > 200 | > 200 | 52.8 ± 5.3 |
